Data taken from a melting point compilation (Tetko et al.; mined from patent text by program, amines drawn as free bases though some values may be those of a salt).

Row | Structure (SMILES) | melting point [°C]
1 | CC1(C)COc2cc(F)c(F)cc2C(O)(c2ccccn2)C1 (stereo unspecified) | 93
2 | Cc1cc2c(-c3ccc(Br)cc3)c(CC(=O)O)c(=O)oc2cc1Cl | 238 to 239
3 | CNC(=O)Nc1cccc2c1C(=O)c1c-2n[nH]c1-c1ccc(OC)cc1 | > 300
4 | CN(C)C(=O)c1ccc(-c2ccc(NC(=O)Nc3cccc(C(F)(F)F)c3)c(-c3n[nH]c(=O)[nH]3)c2)cc1 | 212
5 | CN(C)c1ccc(NC(=O)Nc2ccc3c(ccn3C)c2)cn1 | 220 to 226
6 | CNC(=O)Nc1n[nH]c(-c2ccncc2)c1-c1ccc(F)cc1 | 212 to 213
7 | CC1(C)OC(C=Cc2ccc(C#N)cc2)=CC1=O | 170
8 | COc1ccc2cc(C(=O)C(C)Br)ccc2c1Br (stereo unspecified) | 166 to 167
9 | COc1cccc(CN=C(Cc2ccccc2)N2CC3C(=O)CCC(c4ccccc4)(c4ccccc4)C3C2)c1 (stereo unspecified) | 127
10 | CCOC(=O)c1cnn2c(NCc3ccc(-c4ccccc4C#N)cc3)ccnc12 | 148 to 150
11 | O=C1OC(=O)c2c(Sc3ccccc3)c(Sc3ccccc3)c(Sc3ccccc3)c(Sc3ccccc3)c21 | 141 to 142
12 | FC(F)(F)c1ccc(I)c(I)c1 | 62 to 64
13 | CCOC(=O)C(C#N)=Cc1c(Cl)n(Cc2ccccc2)c2ccccc12 | 130 to 131
14 | COC(=O)c1cc(C(=O)NN2CCCCC2)c2cc(Cc3ccc(F)cc3)cnc2c1O | 233 to 234
15 | CCCc1c(OCCCOc2ccc(C(=O)CO)c(OC)c2CCC)ccc2c1OC(C(=O)OC)CC2 (stereo unspecified) | 87 to 88
16 | CSc1cc2c(cc1C(F)(F)F)N(C(=O)Nc1cccc(C(=O)NCCN3CCCCC3)c1)CC2 | 79 to 81
17 | CS(=O)(=O)NN(c1ccc([N+](=O)[O-])cc1N)S(=O)(=O)c1cccc(S(=O)(=O)F)c1 | 204 to 209
18 | COc1ccc(CCN(CCC2CCCCC2)C(=O)CCCCC(N)=O)cc1OC | 158 to 160
19 | CSC(=S)NN=Cc1nc(C)[nH]c1C | 279 to 281
20 | Cc1oc(-c2ccc3ccccc3c2)nc1COc1ccc(CCCCn2cncn2)cc1 | 134 to 135
21 | CC1(C2CCC3C4CCC5CC(CC(=O)O)CCC5(C)C4CCC32C)OCCO1 (stereo unspecified) | 164 to 167
22 | O=c1c2ccccc2n(CCCCN2CCC(OC(c3ccccc3)c3ccccc3)CC2)c(=O)n1CCO | 145 to 150
23 | Cc1c(C2CCC(c3ccccc3)(N(C)C)CC2)[nH]c2ccc(C#N)cc12 (stereo unspecified) | 235 to 240
24 | Cc1cc(C)c(S(=O)(=O)N(C)O)c(C)c1 | 83 to 84

Row | Structure (SMILES) | melting point [°C]
25 | CCCCC(CC)COC(=O)C(C#N)=Cc1ccc(C(=O)O)cc1 (stereo unspecified) | 159 to 162
26 | O=C(C1CCCc2c1c1ccccc1n2Cc1ccccc1)N1CCCCC1 (stereo unspecified) | 249 to 252
27 | CCCOc1cc(C)c(NC(=O)C(C)Br)c(C)c1 (stereo unspecified) | 148
28 | O=C1Cc2cc([N+](=O)[O-])c(NC(=O)c3ccncc3)cc2N1 | > 300
29 | O=c1ccccn1C1=CC(CF)(CF)Oc2ccc(C(F)(F)C(F)(F)F)cc21 | 137 to 138
30 | NNC(=O)c1ncccn1 | 173 to 175
31 | O=S(CSc1ccc(Cl)cc1)c1ccccc1 (stereo unspecified) | 70 to 71
32 | CN(C)c1ccc(C(=O)CC(=O)C(C)(C)C)cc1 | 61.5 to 61.8
33 | N#Cc1ccc(COc2ccc(C(=O)NC[C@@H](C(=O)NO)N3CCCCC3)cc2)cc1 | 134
34 | CC(C)C(N)=NC(=Nc1ccccc1)N1CCOCC1 | 123 to 126
35 | CCOC(=O)Cc1c(C(=O)O)c2cc(Oc3ccc(C(F)(F)F)cn3)ccc2n1-c1ccc(OC(C)C)cc1 | 202
36 | Cn1cc(C(=O)c2ccc3ccccc3c2)cc1C(=O)c1cccnc1 | 132 to 133
37 | COCOc1cc(CO)ccc1OCc1nc(-c2ccco2)oc1C | 92 to 93
38 | CCCc1ccc(-c2cnc(C#N)c(C#N)n2)cc1 | 87 to 87.9
39 | Cc1ccccc1-n1c(C)nc2cscc2c1=O | 122 to 123
40 | CC1(C)CC(CCn2c(=O)[nH]c3ncc(-c4ccc(O)cc4)nc32)CCO1 (stereo unspecified) | 232 to 234
41 | CCCCCC(C)(C)NC(=O)c1nn(-c2ccc(F)cc2F)c2c1C1CCC2C1 (stereo unspecified) | 76 to 78
42 | CCN(C(=O)COC(C)=O)C1=CC(C)(C)CC(C)=C1 | 38 to 40
43 | C[C@@H]1OCCN(c2cc(N3CCOCC3)nc(-n3c(C(F)F)nc4ccccc43)n2)[C@@H]1C (relative stereo) | 167 to 169
44 | COc1ccc(-c2cc3ccccc3[nH]2)cc1NCc1ccc([N+](=O)[O-])cc1 | 198 to 199
45 | Cc1cc2cc(OCCC#N)ccc2o1 | 73 to 76
46 | CN(C)c1cc(C(=O)O)ncn1 | 250
47 | O=S(=O)(Nc1cccc2c(Cl)c[nH]c12)c1cccc(Cl)c1 | 180 to 181
48 | Cc1c(C)c(O)c([Si](C)(C)C)c(C#C[Si](C)(C)C)c1O | 76 to 77

Row | Structure (SMILES) | melting point [°C]
49 | CC(=O)c1noc2cc(O)ccc12 | 159 to 161
50 | CC(=O)c1ccc(N2CCC(N(C)Cc3ccc(F)cc3)CC2)cc1 | 133
51 | CN1C(=O)[C@H](NC(=O)CCC2CCCCC2)N=C(c2ccccc2)c2ccccc21 | 144 to 146
52 | COc1cccc(-n2nc(-c3ccccc3)c3cccnc32)c1 | 102 to 105
53 | CCSN(C)C(=O)Nc1ccc(OC)c(Cl)c1 | 60
54 | CCCCCCCCCCCC(=O)NCCCCCC(=O)OO | 70 to 75
55 | COc1cc(C(=O)O)ccc1Cc1cn(C(C)C)c2ccc(CCCC(=O)N(C)C)cc12 | 168 to 170
56 | COn1c(C)nc2c(NCc3c(C)cccc3C)cc(C(=O)N(C)C)cc21 | 128 to 129
57 | CCCCN(C(=O)CCC(=O)O)C1CC(C)(C)N(OC2CCCCC2)C(C)(C)C1 | 110 to 113
58 | CSN(C)C(=O)Nc1ccc(Cl)c(Cl)c1 | 93
59 | COc1ccnc(NC(=O)NS(=O)(=O)c2ccccc2-c2nn(C)c(=O)o2)n1 | 223 to 224
60 | O=C1C(O)=C(C2CCC(c3ccc(Cl)cc3)CC2)C(=O)c2ccccc21 (stereo unspecified) | 216 to 219
61 | CC1(C)OC2OC(C3NC(=O)CC3O)C(O)C2O1 (stereo unspecified) | 263 to 265
62 | CCOC(=O)C(C#N)(Cc1ccc(OC)c(OC)c1)C(OCC)OCC (stereo unspecified) | 62 to 65
63 | CCNC(=O)Nc1nc2nc(NCCCN3CCN(C)CC3)ncc2cc1-c1c(Cl)cccc1Cl | 82 to 90
64 | COC(=O)c1ccccc1Oc1ccc(C(F)(F)F)cc1[N+](=O)[O-] | 69 to 70
65 | Cc1c(-c2ccccc2)c(N2CC[C@H](N(C)C)C2)c2oc(-c3ccccc3N)nc2c1C#N | 259 to 263
66 | Cc1cc2c(-c3ccccc3)nc(N3CCN(CC(=O)c4ccc(F)cc4)CC3)nc2s1 | 141 to 142
67 | CC(C)c1cccc(C(C)C)c1NC(=O)CN1C(=O)N(c2ccc(S(C)(=O)=O)cc2)C2(CCCCC2)C1=O | 250
68 | CCON(C(=O)Cc1c(C)cc(Cl)cc1C)C1(C#N)CCN(OC)CC1 | 100 to 103
69 | Cc1c(N2CC[C@H](NC(=O)OC(C)(C)C)C2)c(F)c(N)c2c(=O)c(C(=O)O)cn(C3CC3)c12 | 135 to 136
70 | OCc1cc2c3n(ccc-2n1)CC(Br)=N3 | 113 to 115
71 | CCCCCCCCCCC(NC(=O)NC12CC3CC(CC(C3)C1)C2)C(=O)OC (stereo unspecified) | 75
